Consider 13 molecules from patent US10844064B2, “sGC stimulators” (Cyclerion Therapeutics, Inc., priority 2014, dated 2020).

Several values for one entry are separate records, joined by “and”; a condition that tells them apart may be missing. Equal entries are not always repeated. Bounds are passed on as bounds.

Assay [1] has as its system lambs with acute pulmonary hypertension. To be noted: inhaled microparticles, awake lambs, cited from earlier work; for pulmonary vasodilation: U-46619 infusion to mean pulmonary arterial pressure 35 mm Hg; for effect on mean arterial pressure / transpulmonary cGMP release / systemic arterial oxygenation: U-46619 infusion.
For assay [2], the target named is T1, soluble guanylate cyclase (sGC) (Homo sapiens, UniProt Q02108+Q02153).
T1 construct: endogenously expressing soluble guanylate cyclase (sGC); endogenous in cells; host or cells: HEK293
T1 sequence (Q02108 1-690): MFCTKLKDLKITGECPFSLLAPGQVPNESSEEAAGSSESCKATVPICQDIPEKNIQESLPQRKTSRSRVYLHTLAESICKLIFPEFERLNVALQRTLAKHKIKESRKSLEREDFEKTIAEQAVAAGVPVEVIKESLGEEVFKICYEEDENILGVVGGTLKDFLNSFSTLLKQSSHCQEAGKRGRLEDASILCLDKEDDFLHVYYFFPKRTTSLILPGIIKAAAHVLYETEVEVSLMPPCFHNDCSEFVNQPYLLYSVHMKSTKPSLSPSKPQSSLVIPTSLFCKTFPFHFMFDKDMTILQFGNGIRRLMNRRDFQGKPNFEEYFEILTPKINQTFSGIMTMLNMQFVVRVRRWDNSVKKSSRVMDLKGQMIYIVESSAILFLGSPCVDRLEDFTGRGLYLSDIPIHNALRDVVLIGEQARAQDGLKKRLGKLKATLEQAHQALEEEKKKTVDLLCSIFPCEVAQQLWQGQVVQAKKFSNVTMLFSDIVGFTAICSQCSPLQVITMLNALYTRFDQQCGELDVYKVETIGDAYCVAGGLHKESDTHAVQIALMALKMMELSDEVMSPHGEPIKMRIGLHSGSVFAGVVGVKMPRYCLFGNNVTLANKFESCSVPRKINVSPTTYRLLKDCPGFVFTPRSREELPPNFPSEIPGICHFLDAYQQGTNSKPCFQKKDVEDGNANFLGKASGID
T1 sequence (Q02153 1-619): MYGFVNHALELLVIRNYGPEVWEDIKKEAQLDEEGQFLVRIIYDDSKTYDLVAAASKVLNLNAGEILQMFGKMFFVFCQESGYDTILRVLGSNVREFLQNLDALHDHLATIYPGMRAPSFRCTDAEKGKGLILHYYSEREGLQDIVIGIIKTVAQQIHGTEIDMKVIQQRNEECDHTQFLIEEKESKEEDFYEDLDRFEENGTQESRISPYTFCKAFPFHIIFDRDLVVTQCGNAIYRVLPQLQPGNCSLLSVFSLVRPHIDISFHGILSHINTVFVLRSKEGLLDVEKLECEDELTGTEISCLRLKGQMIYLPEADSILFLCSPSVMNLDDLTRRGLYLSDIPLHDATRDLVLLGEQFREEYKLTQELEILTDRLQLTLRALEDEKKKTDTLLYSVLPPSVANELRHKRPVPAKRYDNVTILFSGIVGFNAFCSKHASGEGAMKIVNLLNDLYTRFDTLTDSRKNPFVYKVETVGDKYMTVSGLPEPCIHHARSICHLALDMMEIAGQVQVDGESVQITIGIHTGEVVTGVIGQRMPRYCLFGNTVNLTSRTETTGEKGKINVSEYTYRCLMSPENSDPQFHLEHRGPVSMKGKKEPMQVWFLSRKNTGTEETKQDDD
In words: sGC-HEK-cGMP assay with LC/MS detection (Example 2A). Format: cell-based. To be noted: HEK293 cells, 10 μM DETA-NONOate, 20 min; concentration eliciting 50% of high control response (30 μM Compound Y); read-out: Absolute EC50 (nM) - binned. Here is the method: Human embryonic kidney cells (HEK293), endogenously expressing soluble guanylate cyclase (sGC), were used to evaluate the activity of test compounds. Compounds stimulating the sGC enzyme should cause an increase in the intracellular concentration of cGMP. HEK 293 cells were seeded in Dulbecco's Modification of Eagle's Medium supplemented with fetal bovine serum (10% final) and penicillin (100 U/mL)/streptomycin (100 μg/mL) in a 50 μL, volume at a density of 1.5×10^4 cells/well in a poly-D-lysine coated 384 well flat bottom plate. Cells were incubated overnight at 37° C. in a humidified chamber with 5% CO2. Medium was aspirated and cells were washed with 1× Hank's Buffered Saline Salt Solution (50 μL). Cells were then incubated for 15 minutes at 37° C. with 50 μL of a 0.5 mM 3-isobutyl-1-methylxanthine (IBMX) solution. Test article and Diethylenetriamine NONOate (DETA-NONOate) solutions (x μM concentration for test article solution and 10 μM concentration for DETA-NONOate solution; wherein x is one of the following concentrations);
were then added to the assay mixture and the resulting mixture incubated at 37° C. for 20 minutes. After the 20 minute incubation, the assay mixture was aspirated and 10% acetic acid containing 150 ng/mL+3-cGMP (internal standard for LCMS) (50 μL) was added to the cells. The plate was incubated at 4° C. for 30 minutes in the acetic acid solution to stop the reaction and lyse the cells. The plates were then centrifuged at 1,000 g for 3 minutes at 4° C. and the supernatant transferred to a clean reaction plate for LCMS analysis.
cGMP concentrations were determined from each sample using the LCMS conditions below (Table 2) and calculated standard curve. The standard curve was prepared in 10% acetic acid with 150 ng/mL+3cGMP (isotopically labelled cGMP with a weight 3 units higher than wild type) with the following final concentrations of cGMP in ng/mL: 1, 5, 10, 50, 100, 250, 500, 1000, 2000.
(§1) Data were normalized to a high control using the following equation: 100*(Sample—Low Control)/(High Control—Low Control), where the low control is the average of 16 samples treated with 1% DMSO, and the high control is the average of 16 samples treated with 30 μM of Compound Y depicted below. Data were fit using a 4-parameter fit (log(agonist) vs. response variable slope) using GraphPad Prism Software v.5. n=2 for all compounds. […] Compounds failing to elicit a minimum response of 50% are reported as >30 μM. For compounds run in duplicate or n higher than 2, the result herein given is the geometric mean of the several results obtained.

A further assay has as its target T2, sGC enzyme (Homo sapiens, UniProt Q02108+Q02153).
T2 construct: host or cells: HEK293 expressing GloSensor 40F cGMP
T2 sequence (Q02108 1-690): T1 sequence (Q02108 1-690)
T2 sequence (Q02153 1-619): T1 sequence (Q02153 1-619)
In words: cGMP GloSensor cell-based assay, 384-well format (Example 2B). To be noted: HEK293 GloSensor 40F cGMP cells, 10 μM DETA-NONOate; 50% of high control response (Compound Y); read-out: sGC_HEK_GloSensor EC50/IC50 Abs (Norm) (nM) Binned. Here is the method: as §1
Human embryonic kidney cells (HEK293) cells expressing GloSensor™ 40F cGMP (Part No: CS182801, Promega) were used to evaluate the activity of test compounds. The luminescent biosensors (engineered luciferase) that were incorporated into these cells detect cGMP formed by the compounds stimulating the sGC enzyme and emit luminescence.
cGMP GloSensor cells were maintained in Dulbecco's Modification of Eagle's Medium (DMEM) supplemented with fetal bovine serum (FBS) (10% final) and hygromycine (200 μg/ml). The day before assay, cells were plated in DMEM with 10% FBS in a 50 μL volume at a density of 1.5×10^4 cells/well in a poly-D-lysine coated 384-well flat white-bottom plate (Corning Cat No 35661). Cells were incubated overnight at 37° C. in a humidified chamber with 5% CO2. The next day, medium was removed and cells were replaced with 40 μl/well of GloSensor™, […] (Promega Cat No E1291). Cells were treated for 90 minutes at 25° C. to allow the substrate to equilibrate in the cells. Test compounds and Diethylenetriamine NONOate (DETA-NONOate) was diluted to […] in serum-free CO2 independent medium and serally diluted at 4× dilutions to create 5× dose curve from which 10 ul was added to the wells (x uM concentration for test compound solution and 10 μM concentration for DETA-NONOate solution; wherein x is one of the following final concentrations).
For the kinetics studies, luminescense was measured right away for 0.2 sec per well with Envision (Perkin Elmer model No). For endpoint SAR screening, data were collected after 55 min incubation at room temperature.
Data analysis was carried out as indicated above in Example 2A.

For the molecule `Nc1nc(-c2nn(Cc3ccccc3F)c3ncccc23)ncc1C1CC1` [BAY 41-2272], in assay [1], the pulmonary vasodilation result was “dose dependent pulmonary vasodilation”, the “effect on mean arterial pressure” value is on record as “without significant effect” and the “transpulmonary cGMP release” value is reported as “increased transpulmonary cGMP release”.
In the case of `Nc1nc(-c2nn(Cc3ccccc3F)c3ncccc23)nc(N)c1N1CCOCC1` [BAY 41-8543], in assay [1], the pulmonary vasodilation result is given as “dose dependent pulmonary vasodilation”, the “effect on mean arterial pressure” value is reported as “without significant effect”, the systemic arterial oxygenation entry was “increased systemic arterial oxygenation” and the “transpulmonary cGMP release” value is recorded as “increased transpulmonary cGMP release”.
`O=C(O)CCCCN(CCc1ccccc1OCc1ccc(CCc2ccccc2)cc1)Cc1ccc(C(=O)O)cc1` [BAY 58-2667]: in assay [1], the pulmonary vasodilation result is reported as “dose dependent pulmonary vasodilation”, the “effect on mean arterial pressure” value is reported as “without significant effect”, the systemic arterial oxygenation entry is on record as “increased systemic arterial oxygenation” and the “transpulmonary cGMP release” value is “increased transpulmonary cGMP release”.
For the molecule `CC1(C(N)=O)C(=O)Nc2nc(-c3cc(-c4ccon4)n(Cc4ccccc4F)n3)ncc21` (centres unmarked) [Compound I-16], the EC50 in assay [2] was above 1000 nM.
Same read-out and setting: to `CCOC(=O)C1(C)C(=O)Nc2nc(-c3cc(-c4ccon4)n(Cc4ccccc4F)n3)nc(Br)c21` (centres unmarked) [Compound I-17] belongs 100 to 1000 nM; to `CCOC(=O)C1(C)C(=O)Nc2nc(-c3cc(-c4ccon4)n(Cc4ccccc4F)n3)ncc21` (centres unmarked) [Compound I-18], 100 to 1000 nM; to `CCOC(=O)C1(C)C(=O)Nc2nc(-c3cc(C(C)=O)n(Cc4ccccc4F)n3)nc(N)c21` (centres unmarked) [Compound I-19], below 100 nM.
Same read-out and setting: in the case of `CC(=O)c1cc(-c2nc(N)c3c(n2)NC(=O)C3(C)C(N)=O)nn1Cc1ccccc1F` (centres unmarked) [Compound I-20] it was 100 to 1000 nM.
As for `CCOC(=O)C1(C)C(=O)Nc2nc(-c3cc(COC)n(Cc4ccccc4F)n3)nc(N)c21` (centres unmarked) [Compound I-21], in assay [2], the EC50 is above 1000 nM.
Same read-out and setting: in the case of `COCc1cc(-c2nc(N)c3c(n2)NC(=O)C3(C)C(N)=O)nn1Cc1ccccc1F` (centres unmarked) [Compound I-22] it was above 1000 nM.
Regarding `COc1cc(-c2nc(N)c3c(n2)NC(=O)C3(C)C)nn1Cc1ccccc1F` [Compound I-23], in assay [2], the EC50 is 100 to 1000 nM.
In the case of `Cc1cc(-c2nc(N)c3c(n2)NC(=O)C3(C)C)nn1Cc1ccccc1F` [Compound I-71, 4-amino-2-(1-(2-fluorobenzyl)-5-methyl-1H-pyrazol-3-yl)-5,5-dimethyl-5H-pyrrolo[2,3-d]pyrimidin-6(7H)-one], the EC50 is above 1000 nM in assay [2] and 100 to 1000 nM at sGC enzyme.
As for `Cc1cc(-c2ncc3c(n2)NC(=O)C3(C)C)nn1Cc1ccccc1F` [Compound I-72], the EC50 in assay [2] is above 1000 nM; on sGC enzyme it was < 100 nM and 100 to 1000 nM.
